pEC50: −log10 of the molar value. The source made the active and inactive calls. The calls are words filed in the database; no cut-off is given here.

Chain of Glycogen synthase kinase-3 alpha (Homo sapiens) (P49840 2-483 limits assumed): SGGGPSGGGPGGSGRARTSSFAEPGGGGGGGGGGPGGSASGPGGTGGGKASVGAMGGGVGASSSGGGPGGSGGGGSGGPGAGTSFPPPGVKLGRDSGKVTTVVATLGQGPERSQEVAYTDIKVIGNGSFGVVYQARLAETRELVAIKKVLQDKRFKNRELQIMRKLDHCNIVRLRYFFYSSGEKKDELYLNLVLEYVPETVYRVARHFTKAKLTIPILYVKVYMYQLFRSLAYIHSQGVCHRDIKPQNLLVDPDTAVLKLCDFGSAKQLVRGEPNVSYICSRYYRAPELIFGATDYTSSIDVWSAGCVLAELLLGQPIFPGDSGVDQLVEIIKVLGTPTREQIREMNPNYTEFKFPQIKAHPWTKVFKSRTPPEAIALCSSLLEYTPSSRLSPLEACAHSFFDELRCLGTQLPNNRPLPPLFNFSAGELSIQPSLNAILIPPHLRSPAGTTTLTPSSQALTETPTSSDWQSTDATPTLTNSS
Chain of Serine/threonine-protein kinase SIK2 (Homo sapiens) (Q9H0K1 whole entry, looked up): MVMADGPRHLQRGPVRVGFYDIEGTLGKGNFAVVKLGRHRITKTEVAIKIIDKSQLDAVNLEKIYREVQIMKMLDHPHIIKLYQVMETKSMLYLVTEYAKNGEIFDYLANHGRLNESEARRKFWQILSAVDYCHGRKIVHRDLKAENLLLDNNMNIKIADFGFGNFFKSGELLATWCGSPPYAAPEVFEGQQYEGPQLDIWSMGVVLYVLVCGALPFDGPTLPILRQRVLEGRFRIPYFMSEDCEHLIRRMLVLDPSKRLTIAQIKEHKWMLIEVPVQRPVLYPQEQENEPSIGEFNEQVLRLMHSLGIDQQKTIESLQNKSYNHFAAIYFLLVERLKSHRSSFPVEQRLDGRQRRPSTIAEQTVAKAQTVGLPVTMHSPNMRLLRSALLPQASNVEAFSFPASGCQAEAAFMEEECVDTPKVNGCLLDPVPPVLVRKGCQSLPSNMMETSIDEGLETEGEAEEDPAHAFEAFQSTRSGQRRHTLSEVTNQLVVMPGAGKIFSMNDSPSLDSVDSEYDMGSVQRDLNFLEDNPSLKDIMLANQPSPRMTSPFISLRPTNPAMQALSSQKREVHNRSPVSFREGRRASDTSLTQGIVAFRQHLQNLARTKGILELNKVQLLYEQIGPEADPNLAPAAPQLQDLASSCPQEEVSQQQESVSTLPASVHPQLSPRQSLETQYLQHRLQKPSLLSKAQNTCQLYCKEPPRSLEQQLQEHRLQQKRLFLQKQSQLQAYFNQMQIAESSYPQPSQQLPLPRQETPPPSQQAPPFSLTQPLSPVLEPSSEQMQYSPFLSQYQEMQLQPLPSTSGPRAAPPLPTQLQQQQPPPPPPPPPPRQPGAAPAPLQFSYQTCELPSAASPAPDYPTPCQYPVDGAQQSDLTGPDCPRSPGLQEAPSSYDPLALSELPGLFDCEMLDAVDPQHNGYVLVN
Chain of Cyclin-dependent kinase 9 (Homo sapiens) (P50750 whole entry): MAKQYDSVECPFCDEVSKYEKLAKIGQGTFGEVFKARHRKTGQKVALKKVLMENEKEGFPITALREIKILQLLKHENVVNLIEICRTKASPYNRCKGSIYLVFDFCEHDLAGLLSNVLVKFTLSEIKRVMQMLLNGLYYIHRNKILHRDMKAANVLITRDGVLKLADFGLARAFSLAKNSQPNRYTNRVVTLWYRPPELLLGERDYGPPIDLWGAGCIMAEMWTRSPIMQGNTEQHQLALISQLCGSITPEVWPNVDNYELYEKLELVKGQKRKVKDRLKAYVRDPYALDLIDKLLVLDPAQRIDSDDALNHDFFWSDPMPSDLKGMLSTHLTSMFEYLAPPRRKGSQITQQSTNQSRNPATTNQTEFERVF

One series has as its target Glycogen synthase kinase-3 alpha (Homo sapiens) (UniProt P49840). The series is described as follows: Binding affinity to GSK3alpha (unknown origin).
Details: not given
With `N#Cc1c[nH]c(C(=O)N2CCOC(c3ccnc(N4CCCC4)n3)C2)c1` (racemic), the result was inactive. Regarding `N#Cc1c[nH]c(C(=O)N2CCO[C@H](c3ccnc(N4CCCC4)n3)C2)c1`, the result was inactive.

The next series has as its target Cyclin-dependent kinase 9 (Homo sapiens) (UniProt P50750). The series is described as follows: Binding affinity to CDK9 (unknown origin).
Details: not given
For the compound `N#Cc1c[nH]c(C(=O)N2CCOC(c3ccnc(N4CCCC4)n3)C2)c1` (racemic), the outcome was inactive. Still for that read-out and setting: the value for `N#Cc1c[nH]c(C(=O)N2CCO[C@H](c3ccnc(N4CCCC4)n3)C2)c1` was “inactive”.

Another series deals with Cyclin-dependent kinase 2 (Homo sapiens) (UniProt P24941). The series is described as follows: Binding affinity to CDK2 (unknown origin).
Details: not given
In the case of `N#Cc1c[nH]c(C(=O)N2CCOC(c3ccnc(N4CCCC4)n3)C2)c1` (racemic), the result was inactive. Consider `N#Cc1c[nH]c(C(=O)N2CCO[C@H](c3ccnc(N4CCCC4)n3)C2)c1`, for which the outcome was inactive.

The target in a further series is Serine/threonine-protein kinase SIK1 (Homo sapiens) (UniProt P57059). Put plainly: Binding affinity to SIK1 (unknown origin) by FRET biochemical assay.
Chain of Serine/threonine-protein kinase SIK1 (Homo sapiens) (P57059 whole entry): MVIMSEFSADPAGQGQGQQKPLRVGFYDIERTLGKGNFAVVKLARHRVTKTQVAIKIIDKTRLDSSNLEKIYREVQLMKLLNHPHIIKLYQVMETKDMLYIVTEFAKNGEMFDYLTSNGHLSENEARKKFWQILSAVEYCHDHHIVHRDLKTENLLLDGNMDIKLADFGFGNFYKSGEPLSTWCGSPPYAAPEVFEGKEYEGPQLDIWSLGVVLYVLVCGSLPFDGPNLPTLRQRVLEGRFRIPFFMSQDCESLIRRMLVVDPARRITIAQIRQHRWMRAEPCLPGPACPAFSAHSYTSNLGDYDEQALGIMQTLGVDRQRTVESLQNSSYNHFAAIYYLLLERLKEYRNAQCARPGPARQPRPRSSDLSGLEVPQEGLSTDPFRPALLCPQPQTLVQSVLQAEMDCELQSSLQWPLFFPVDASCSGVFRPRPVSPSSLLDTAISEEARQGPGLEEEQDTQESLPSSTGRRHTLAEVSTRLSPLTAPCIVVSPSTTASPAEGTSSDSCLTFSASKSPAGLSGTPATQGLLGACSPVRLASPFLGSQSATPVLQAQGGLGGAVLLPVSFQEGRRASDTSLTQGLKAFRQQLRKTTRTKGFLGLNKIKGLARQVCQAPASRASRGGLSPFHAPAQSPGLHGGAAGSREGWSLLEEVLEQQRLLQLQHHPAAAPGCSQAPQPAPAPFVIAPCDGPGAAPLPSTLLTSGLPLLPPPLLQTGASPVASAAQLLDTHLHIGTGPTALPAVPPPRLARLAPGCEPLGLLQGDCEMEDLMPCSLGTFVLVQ
Details: not given
Consider `N#Cc1c[nH]c(C(=O)N2CCOC(c3ccnc(N4CCCC4)n3)C2)c1` (racemic), for which the outcome was inactive. Still for that read-out and setting: the value for `N#Cc1c[nH]c(C(=O)N2CCO[C@H](c3ccnc(N4CCCC4)n3)C2)c1` was “inactive”.

System in another series: not listed separately
Put plainly: Metabolic stability in human hepatocytes assessed as intrinsic clearance by LC-MS/MS analysis. Format: ADME, cell-based, Hepatocyte. Particulars: read-out: CLH.
On to `C[C@@H]1C[C@H](c2ccnc(N3CCCC3)n2)CN(C(=O)c2c[nH]c(C#N)c2)C1`, for which the CLint scaled was 5.4 L/h/kg.

System in the next series: not listed separately
Put plainly: Upregulation of IL-10 level in human CD4+ T cell by flow cytometry analysis. Format: functional, cell-based.
Details: not given
(In general: In flow cytometry, cells or beads pass a laser one at a time.)
A word on the pEC50: it is the EC50 on a negative log10 scale, so that one unit is a factor of ten. The low end stands for a large EC50, the high end for a small EC50. With `Cn1cc(C(=O)N2CCOC(c3ccnc(N4CCCC4)n3)C2)cc1C#N` (racemic), the pEC50 is less than 4.60. On the same count and under the same terms, to `N#Cc1cc(C(=O)N2CCCC(c3ccnc(-n4cccn4)n3)C2)c[nH]1` (racemic) belongs 5.04.

On to `CO[C@H]1C[C@@H](c2ccnc(N3CC[C@@H](F)C3)n2)CN(C(=O)c2c[nH]c(C#N)c2)C1`, for which the pEC50 was 5.62. Compared with the last compound, the pEC50 is 0.58 log units higher. Still for that read-out and setting: the value for `NC(=O)c1c[nH]c(C(=O)N2CCOC(c3ccnc(N4CCCC4)n3)C2)c1` (racemic) was less than 4.60; that for `C[C@@H]1CCN(C(=O)c2c[nH]c(C#N)c2)C[C@H]1c1ccnc(N2CCCC2)n1` was 6.36. Consider `CCc1nccc(C2CCCN(C(=O)c3c[nH]c(C#N)c3)C2)n1` (racemic), for which the pEC50 is less than 4.60. With `N#Cc1c[nH]c(C(=O)N2CCOC(c3ccnc(N4CCCC4)n3)C2)c1` (racemic), the pEC50 was 6.56. `CC(C)COc1nccc(C2CCCN(C(=O)c3c[nH]c(C#N)c3)C2)n1` (racemic) gave a pEC50 of less than 4.60. Still for that read-out and setting: the value for `CO[C@@H]1C[C@H](c2ccnc(N3CCCC3)n2)CN(C(=O)c2c[nH]c(C#N)c2)C1` was 6.99; that for `N#Cc1cc(C(=O)N2CCC[C@H](c3ccnc(N4CC[C@H](F)C4)n3)C2)c[nH]1` was 6.02. `Cc1[nH]c(C#N)cc1C(=O)N1CCOC(c2ccnc(N3CCCC3)n2)C1` (racemic) gave a pEC50 of 6.31.

Turning to `N#Cc1c[nH]c(C(=O)N2CCO[C@H](c3ccnc(N4CCCC4)n3)C2)c1`, the pEC50 was 5.23. In the case of `Cc1cc(C2CCCN(C(=O)c3c[nH]c(C#N)c3)C2)nc(N2CCCC2)n1` (racemic), the pEC50 is less than 4.60. Still for that read-out and setting: the value for `N#Cc1cc(C(=O)N2C[C@@H](c3ccnc(N4CCCC4)n3)CC(F)(F)C2)c[nH]1` was 6.58.

Compound `N#Cc1cc(C(=O)N2CCC[C@H](c3ccnc(N4CCCC4)n3)C2)c[nH]1` had a pEC50 of 6.56. Compound `N#Cc1ncc(C(=O)N2CCOC(c3ccnc(N4CCCC4)n3)C2)s1` (racemic) had a pEC50 of less than 4.60. Same read-out and setting: to `N#Cc1cc(C(=O)N2CCCC(c3ccnc(N4CCCCC4)n3)C2)c[nH]1` (racemic) belongs 5.70; to `C[C@H]1CCCN1c1nccc([C@H]2CCCN(C(=O)c3c[nH]c(C#N)c3)C2)n1`, 6.47. Still for that read-out and setting: to `N#Cc1cc(C(=O)N2CCCC(c3ncnc(N4CCCC4)n3)C2)c[nH]1` (racemic) belongs less than 4.60; to `N#Cc1cc(C(=O)N2CCCC(c3cc(N4CCCC4)ncn3)C2)c[nH]1` (racemic), less than 4.60; to `N#Cc1cc(C(=O)N2CCC[C@H](c3ccnc(N4CC[C@@H](F)C4)n3)C2)c[nH]1`, 6.75.

For `CCN(CC)c1nccc(C2CCCN(C(=O)c3c[nH]c(C#N)c3)C2)n1` (racemic), the negative-log EC50 (pEC50) was less than 4.60. On the same count and under the same terms, to `N#Cc1cc(C(=O)N2CCCC(F)(c3ccnc(N4CCCC4)n3)C2)c[nH]1` (racemic) belongs 6.17; to `N#Cc1cc(C(=O)N2CCOC(c3ccnc(N4CCCC4)n3)C2)co1` (racemic), less than 4.60; to `C[C@@H]1CC[C@H](c2ccnc(N3CCCC3)n2)CN1C(=O)c1c[nH]c(C#N)c1`, 7.48. Still for that read-out and setting: to `CO[C@@H]1C[C@H](c2ccnc(N3CC[C@@H](F)C3)n2)CN(C(=O)c2c[nH]c(C#N)c2)C1` belongs 7.34; to `N#Cc1cc(C(=O)N2CCO[C@H](c3ccnc(N4CCCC4)n3)C2)c[nH]1`, 5.98; to `N#Cc1cc(C(=O)N2CCOC(c3ccnc(N4CCCC4)n3)C2)n[nH]1` (racemic), less than 4.60. Same read-out and setting: to `C[C@@H]1C[C@H](c2ccnc(N3CCCC3)n2)CN(C(=O)c2c[nH]c(C#N)c2)C1` belongs 6.60; to `N#Cc1cc(C(=O)N2CCC[C@H](c3ccnc(N4CCC(F)(F)C4)n3)C2)c[nH]1`, 6.02; to `N#Cc1coc(C(=O)N2CCOC(c3ccnc(N4CCCC4)n3)C2)c1` (racemic), less than 4.60. For `Cc1[nH]c(C#N)cc1C(=O)N1CCCC(c2ccnc(N3CCCC3)n2)C1` (racemic), the pEC50 is 6.45. Same read-out and setting: the value for `N#Cc1cc(C(=O)N2CCC[C@@H](c3ccnc(N4CCCC4)n3)C2)c[nH]1` was 6.56; that for `N#Cc1ccc(C(=O)N2CCOC(c3ccnc(N4CCCC4)n3)C2)[nH]1` (racemic) was less than 4.60.

System in the next series: not listed separately
The series is described as follows: Upregulation of TNF-alpha level in human CD4+ T cell by flow cytometry analysis. It counts as functional, cell-based.
Details: not given
For the compound `CO[C@@H]1C[C@H](c2ccnc(N3CC[C@@H](F)C3)n2)CN(C(=O)c2c[nH]c(C#N)c2)C1`, the pEC50 was less than 4.60.

The target in the next series is Serine/threonine-protein kinase SIK3 (Homo sapiens) (UniProt Q9Y2K2). Put plainly: Binding affinity to SIK3 (unknown origin) by FRET biochemical assay.
Chain of Serine/threonine-protein kinase SIK3 (Homo sapiens) (Q9Y2K2 whole entry, looked up): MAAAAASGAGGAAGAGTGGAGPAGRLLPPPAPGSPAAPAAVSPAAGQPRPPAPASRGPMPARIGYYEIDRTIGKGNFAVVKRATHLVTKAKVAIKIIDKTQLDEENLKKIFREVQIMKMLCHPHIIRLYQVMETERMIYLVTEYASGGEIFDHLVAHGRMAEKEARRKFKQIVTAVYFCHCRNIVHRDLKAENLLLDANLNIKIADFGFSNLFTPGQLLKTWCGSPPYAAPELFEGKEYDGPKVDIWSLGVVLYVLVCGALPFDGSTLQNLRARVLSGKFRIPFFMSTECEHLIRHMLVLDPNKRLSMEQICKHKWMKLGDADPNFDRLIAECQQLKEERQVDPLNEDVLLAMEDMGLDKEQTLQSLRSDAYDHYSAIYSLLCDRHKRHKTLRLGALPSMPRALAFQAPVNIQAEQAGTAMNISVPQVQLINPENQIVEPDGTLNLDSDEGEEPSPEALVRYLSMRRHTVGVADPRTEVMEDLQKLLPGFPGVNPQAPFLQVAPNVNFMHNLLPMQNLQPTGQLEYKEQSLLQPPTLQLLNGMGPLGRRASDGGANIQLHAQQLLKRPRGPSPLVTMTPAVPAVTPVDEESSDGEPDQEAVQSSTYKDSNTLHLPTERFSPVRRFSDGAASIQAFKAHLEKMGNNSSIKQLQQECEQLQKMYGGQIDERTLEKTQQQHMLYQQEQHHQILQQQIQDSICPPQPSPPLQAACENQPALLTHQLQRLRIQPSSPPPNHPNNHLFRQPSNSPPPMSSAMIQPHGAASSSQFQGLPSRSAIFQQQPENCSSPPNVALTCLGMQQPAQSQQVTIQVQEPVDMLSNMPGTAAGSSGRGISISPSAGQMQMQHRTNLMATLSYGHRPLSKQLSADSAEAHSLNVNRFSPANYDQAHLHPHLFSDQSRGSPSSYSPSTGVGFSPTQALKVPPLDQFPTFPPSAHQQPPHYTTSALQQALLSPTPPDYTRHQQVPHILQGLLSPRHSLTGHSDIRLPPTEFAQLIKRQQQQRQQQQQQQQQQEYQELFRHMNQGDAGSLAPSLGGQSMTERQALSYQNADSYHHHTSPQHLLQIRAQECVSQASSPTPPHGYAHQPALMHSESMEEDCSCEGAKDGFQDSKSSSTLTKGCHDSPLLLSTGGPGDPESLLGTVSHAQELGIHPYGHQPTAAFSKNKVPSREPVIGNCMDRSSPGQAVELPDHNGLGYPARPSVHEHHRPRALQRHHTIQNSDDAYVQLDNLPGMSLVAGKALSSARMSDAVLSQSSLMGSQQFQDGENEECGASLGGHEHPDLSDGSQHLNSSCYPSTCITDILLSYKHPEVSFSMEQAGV
Details: not given
Regarding `N#Cc1c[nH]c(C(=O)N2CCOC(c3ccnc(N4CCCC4)n3)C2)c1` (racemic), the outcome was inactive. For `N#Cc1c[nH]c(C(=O)N2CCO[C@H](c3ccnc(N4CCCC4)n3)C2)c1`, the result was inactive.

System in the next series: not listed separately
The series is described as follows: Upregulation of IL-10 level in mouse whole blood cell preincubated for 30 mins followed by LPS stimulation and measured after 23 hrs by MSD analysis. It counts as functional, cell-based.
Details: not given
The compound `CO[C@@H]1C[C@H](c2ccnc(N3CC[C@@H](F)C3)n2)CN(C(=O)c2c[nH]c(C#N)c2)C1` showed a pEC50 of 7.20.

Another series deals with Mus musculus. The series is described as follows: Anti-inflammatory activity in LPS-induced male CD-1 mouse acute inflammatory model assessed as effect on IL-10 level at 50 mg/kg, sc preincubated for 15 mins followed by LPS stimulation and measured after 3.5 hrs. It counts as functional, organism-based. The settings on record: time 225.0 min.
For `CO[C@@H]1C[C@H](c2ccnc(N3CC[C@@H](F)C3)n2)CN(C(=O)c2c[nH]c(C#N)c2)C1`, the result was Active.

A further series concerns Mus musculus. The series is described as follows: Anti-inflammatory activity in LPS-induced male CD-1 mouse acute inflammatory model assessed as peak IL-10 level at 1 mg/kg, sc preincubated for 15 mins followed by LPS stimulation and measured after 2 hrs relative to control. Format: functional. The settings on record: time 135 min, 2.25 h.
As to `CO[C@@H]1C[C@H](c2ccnc(N3CC[C@@H](F)C3)n2)CN(C(=O)c2c[nH]c(C#N)c2)C1`, the Activity is given as 150%.

A further series concerns Mus musculus. Put plainly: Anti-inflammatory activity in LPS-induced male CD-1 mouse acute inflammatory model assessed as peak IL-10 level at 50 mg/kg, sc preincubated for 15 mins followed by LPS stimulation and measured after 2 hrs relative to control. Format: functional. The settings on record: time 135 min, 2.25 h.
For the compound `CO[C@@H]1C[C@H](c2ccnc(N3CC[C@@H](F)C3)n2)CN(C(=O)c2c[nH]c(C#N)c2)C1`, the Activity was 500%.

The subject of another series is Mus musculus. The series is described as follows: Anti-inflammatory activity in LPS-induced male CD-1 mouse acute inflammatory model assessed as peak IL-10 level at 10 mg/kg, sc preincubated for 15 mins followed by LPS stimulation and measured after 2 hrs relative to control. Format: functional. Particulars: time 135 min, 2.25 h.
On to `CO[C@@H]1C[C@H](c2ccnc(N3CC[C@@H](F)C3)n2)CN(C(=O)c2c[nH]c(C#N)c2)C1`, for which the Activity is reported as 176%.

The target of a further series is Glycogen synthase kinase-3 beta (Homo sapiens) (UniProt P49841). Put plainly: Binding affinity to GSK3beta (unknown origin).
Chain of Glycogen synthase kinase-3 beta (Homo sapiens) (P49841 whole entry, looked up): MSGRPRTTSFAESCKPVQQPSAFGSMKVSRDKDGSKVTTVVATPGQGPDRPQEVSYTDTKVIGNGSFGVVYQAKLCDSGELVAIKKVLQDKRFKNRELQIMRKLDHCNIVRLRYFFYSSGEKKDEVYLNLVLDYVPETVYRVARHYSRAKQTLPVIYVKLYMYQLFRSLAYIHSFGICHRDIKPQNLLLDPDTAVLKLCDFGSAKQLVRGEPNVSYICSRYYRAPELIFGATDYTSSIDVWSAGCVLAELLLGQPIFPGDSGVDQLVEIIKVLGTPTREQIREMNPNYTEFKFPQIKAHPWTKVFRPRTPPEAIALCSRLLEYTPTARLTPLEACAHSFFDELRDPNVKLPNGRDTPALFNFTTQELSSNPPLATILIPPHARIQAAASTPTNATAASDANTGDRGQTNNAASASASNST
Details: not given
On to `N#Cc1c[nH]c(C(=O)N2CCOC(c3ccnc(N4CCCC4)n3)C2)c1` (racemic), for which the outcome was inactive. For the compound `N#Cc1c[nH]c(C(=O)N2CCO[C@H](c3ccnc(N4CCCC4)n3)C2)c1`, the result was inactive.

System in another series: not listed separately
Put plainly: Upregulation of IL-10 level in human whole blood cell preincubated for 30 mins followed by LPS stimulation and measured after 23 hrs by MSD analysis. It counts as functional, cell-based.
Details: not given
`CO[C@@H]1C[C@H](c2ccnc(N3CC[C@@H](F)C3)n2)CN(C(=O)c2c[nH]c(C#N)c2)C1` showed a pEC50 of 7.30.

In a further series the target is Cyclin-dependent kinase 7 (Homo sapiens) (UniProt P50613). Put plainly: Binding affinity to CDK7 (unknown origin).
Chain of Cyclin-dependent kinase 7 (Homo sapiens) (P50613 whole entry): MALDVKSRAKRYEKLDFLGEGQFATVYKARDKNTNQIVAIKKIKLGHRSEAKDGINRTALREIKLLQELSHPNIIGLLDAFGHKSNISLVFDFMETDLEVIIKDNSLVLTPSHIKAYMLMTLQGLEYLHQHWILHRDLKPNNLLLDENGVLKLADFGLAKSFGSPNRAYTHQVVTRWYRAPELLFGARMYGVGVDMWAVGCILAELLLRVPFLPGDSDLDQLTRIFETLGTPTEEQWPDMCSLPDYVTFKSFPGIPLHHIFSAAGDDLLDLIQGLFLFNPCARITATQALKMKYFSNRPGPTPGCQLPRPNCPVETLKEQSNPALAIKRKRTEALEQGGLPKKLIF
Details: not given
For the compound `N#Cc1c[nH]c(C(=O)N2CCOC(c3ccnc(N4CCCC4)n3)C2)c1` (racemic), the outcome was inactive. As for `N#Cc1c[nH]c(C(=O)N2CCO[C@H](c3ccnc(N4CCCC4)n3)C2)c1`, the outcome was inactive.

For another series, the target named is Cyclin-dependent kinase 6 (Homo sapiens) (UniProt Q00534). The series is described as follows: Binding affinity to CDK6 (unknown origin).
Chain of Cyclin-dependent kinase 6 (Homo sapiens) (Q00534 whole entry): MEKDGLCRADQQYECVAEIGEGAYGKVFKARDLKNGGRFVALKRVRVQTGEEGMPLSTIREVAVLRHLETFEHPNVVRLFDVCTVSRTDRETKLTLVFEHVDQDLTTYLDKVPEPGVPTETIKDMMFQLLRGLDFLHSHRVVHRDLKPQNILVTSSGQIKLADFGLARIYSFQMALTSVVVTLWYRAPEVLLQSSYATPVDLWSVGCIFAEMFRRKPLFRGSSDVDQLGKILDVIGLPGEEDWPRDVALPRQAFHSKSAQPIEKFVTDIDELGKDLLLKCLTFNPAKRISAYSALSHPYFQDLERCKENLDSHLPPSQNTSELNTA
Details: not given
For `N#Cc1c[nH]c(C(=O)N2CCOC(c3ccnc(N4CCCC4)n3)C2)c1` (racemic), the result was inactive.

On to `N#Cc1c[nH]c(C(=O)N2CCO[C@H](c3ccnc(N4CCCC4)n3)C2)c1`, for which the outcome was inactive.

The target in another series is Cyclin-dependent kinase 5 (Homo sapiens) (UniProt Q00535). The series is described as follows: Binding affinity to CDK5 (unknown origin).
Details: not given
Consider `N#Cc1c[nH]c(C(=O)N2CCOC(c3ccnc(N4CCCC4)n3)C2)c1` (racemic), for which the outcome was inactive. Same read-out and setting: to `N#Cc1c[nH]c(C(=O)N2CCO[C@H](c3ccnc(N4CCCC4)n3)C2)c1` belongs “inactive”.

The next series deals with Cyclin-dependent kinase 8/19 (Homo sapiens, UniProt P49336+Q9BWU1). Put plainly: Binding affinity to CDK8/CDK19 complex in human CD4+ T cell assessed as upregulation of IL-10 level. Format: cell-based.
Details: not given
By EC50 is commonly meant the concentration needed to bring the measured effect to its halfway point. For `N#Cc1cc(C(=O)N2CCC[C@H](c3ccnc(N4CCCC4)n3)C2)c[nH]1`, the EC50 was 0.275 µM.

Turning to `N#Cc1cc(C(=O)N2CCC[C@@H](c3ccnc(N4CCCC4)n3)C2)c[nH]1`, the EC50 stood at 6.3 µM.

The target in the next series is Cyclin-dependent kinase 10 (Homo sapiens) (UniProt Q15131). Put plainly: Binding affinity to CDK10 (unknown origin).
Details: not given
Consider `N#Cc1c[nH]c(C(=O)N2CCOC(c3ccnc(N4CCCC4)n3)C2)c1` (racemic), for which the result was inactive. The same measure, in the same setting: to `N#Cc1c[nH]c(C(=O)N2CCO[C@H](c3ccnc(N4CCCC4)n3)C2)c1` belongs “inactive”.

The next series addresses Serine/threonine-protein kinase SIK2 (Homo sapiens) (UniProt Q9H0K1). The series is described as follows: Binding affinity to SIK2 (unknown origin) by FRET biochemical assay.
Details: not given
On to `N#Cc1c[nH]c(C(=O)N2CCOC(c3ccnc(N4CCCC4)n3)C2)c1` (racemic), for which the outcome was inactive. For `N#Cc1c[nH]c(C(=O)N2CCO[C@H](c3ccnc(N4CCCC4)n3)C2)c1`, the outcome was inactive.

The record behind these values is ChEMBL document CHEMBL6096701 (J Med Chem, 2025).
